Results taken from PubChem BioAssay AID1259411 (Chemical Carcinogenesis Research Information System (CCRIS), 2018).
Activity calls are given as the source filed them. No rule for the calls is given here.

System: rodent carcinogenicity bioassays, tumor incidence
Assay: CCRIS carcinogenicity studies
Details: Dose: 0, Dose: 0
Summary of the method: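 NCI-built, expert-reviewed records of carcinogenicity and related test outcomes (mutagenicity, tumor promotion/inhibition) compiled from published and report sources, historical span 1985-2011, not updated.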

SMILES	carcinogen call (Species: MOUSE, Strain/Sex: B6C3F1/FEMALE, Route: ORAL (DIET), 91, 204, 408 PPM IN DIET FOR 2 YRS, 91, 204, 408 PPM IN DIET FOR 2 YRS, Tumor Site: Type of Lesion: LIVER: HEPATOCELLULAR ADENOMA OR CARCINOMA)	carcinogen call (Species: RAT, Strain/Sex: F344/N/FEMALE, Route: DIET, 91, 272, 543 PPM IN DIET FOR 2 YRS, 91, 272, 543 PPM IN DIET FOR 2 YRS, Tumor Site: Type of Lesion: LIVER: HEPATOCELLULAR ADENOMA, THYROID: FOLLICULAR CELL ADENOMA OR CARCINOMA)	carcinogen call (Species: RAT, Strain/Sex: F344/N/MALE, Route: ORAL (DIET), 91, 272, 543 PPM IN DIET FOR 2 YRS, 91, 272, 543 PPM IN DIET FOR 2 YRS, Tumor Site: Type of Lesion: TESTIS: INTERSTITIAL CELL ADENOMA, THYROID: FOLLICULAR CELL ADENOMA OR CARCINOMA)	carcinogen call (Species: FISH, Strain/Sex: SHASTA RAINBOW TROUT/MALE,FEMALE, Route: ORAL, 3.2, 23, 104 PPM IN DIET FOR 4 WK, RESUMED AFTER 2 WK FOR 30 WK (STUDY DURATION: 60 WK), 3.2, 23, 104 PPM IN DIET FOR 4 WK, RESUMED AFTER 2 WK FOR 30 WK (STUDY DURATION: 60 WK))	carcinogen call (Species: MOUSE, Strain/Sex: B6C3F1/FEMALE, Route: ORAL, 5, 15, 50, 80 PPM IN DIET FOR 104 WK (STUDY DURATION: 104 WK), 5, 15, 50, 80 PPM IN DIET FOR 104 WK (STUDY DURATION: 104 WK), Tumor Site: Type of Lesion: LIVER: HEPATOCELLULAR ADENOMA, HEPATOCELLULAR CARCINOMA)	carcinogen call (Species: MOUSE, Strain/Sex: B6C3F1/MALE, Route: ORAL, 5, 15, 80, 150 PPM IN DIET FOR 104 WK (STUDY DURATION: 104 WK), 5, 15, 80, 150 PPM IN DIET FOR 104 WK (STUDY DURATION: 104 WK))	carcinogen call (Species: RAT, Strain/Sex: BDIX/MALE,FEMALE, Route: ORAL, 1, 10, 25 MG/KG DIET FOR 2 YR (STUDY DURATION: 2 YR), 1, 10, 25 MG/KG DIET FOR 2 YR (STUDY DURATION: 2 YR))	carcinogen call (Species: RAT, Strain/Sex: BDIX/MALE, Route: ORAL, 50 MG/KG DIET FOR 26 MO (STUDY DURATION: 26 MO), Tumor Site: Type of Lesion: LIVER: HEPATOCELLULAR CARCINOMA)	carcinogen call (Species: RAT, Strain/Sex: F344/FEMALE, Route: ORAL, 5, 15, 50, 100 PPM IN DIET FOR 104 WK (STUDY DURATION: 104 WK), 5, 15, 50, 100 PPM IN DIET FOR 104 WK (STUDY DURATION: 104 WK))	carcinogen call (Species: RAT, Strain/Sex: F344/MALE, Route: ORAL, 5, 15, 50, 150 PPM IN DIET FOR 104 WK (STUDY DURATION: 104 WK), 5, 15, 50, 150 PPM IN DIET FOR 104 WK (STUDY DURATION: 104 WK), Tumor Site: Type of Lesion: KIDNEY: RENAL TUBULE ADENOMA, RENAL TUBULE CARCINOMA)
CN(C)c1ccc(C(c2ccccc2)c2ccc(N(C)C)cc2)cc1	active; positive; incidence of tumors was statistically significant	equivocal; none of the tumor incidences reached statistical significance; for th	equivocal; thyroid tumors did not reach statistical significance							
CCCC[C@@H](C)[C@@H](OC(=O)C[C@@H](CC(=O)O)C(=O)O)[C@H](C[C@@H](C)C[C@H](O)CCCC[C@@H](O)C[C@H](O)[C@H](C)N)OC(=O)C[C@@H](CC(=O)O)C(=O)O				inactive; negative	active; positive	inactive; negative	inactive; negative	active; positive	inactive; negative	active; positive
